The target in the assay is T1, Ba/F3-Flt3-transfected cells (Homo sapiens, UniProt P36888, cells depend on it, form not given).
T1 construct: BAF3-FLT3 (MIN IL3) pIC50; other: minus IL3
T1 sequence (P36888 1-993): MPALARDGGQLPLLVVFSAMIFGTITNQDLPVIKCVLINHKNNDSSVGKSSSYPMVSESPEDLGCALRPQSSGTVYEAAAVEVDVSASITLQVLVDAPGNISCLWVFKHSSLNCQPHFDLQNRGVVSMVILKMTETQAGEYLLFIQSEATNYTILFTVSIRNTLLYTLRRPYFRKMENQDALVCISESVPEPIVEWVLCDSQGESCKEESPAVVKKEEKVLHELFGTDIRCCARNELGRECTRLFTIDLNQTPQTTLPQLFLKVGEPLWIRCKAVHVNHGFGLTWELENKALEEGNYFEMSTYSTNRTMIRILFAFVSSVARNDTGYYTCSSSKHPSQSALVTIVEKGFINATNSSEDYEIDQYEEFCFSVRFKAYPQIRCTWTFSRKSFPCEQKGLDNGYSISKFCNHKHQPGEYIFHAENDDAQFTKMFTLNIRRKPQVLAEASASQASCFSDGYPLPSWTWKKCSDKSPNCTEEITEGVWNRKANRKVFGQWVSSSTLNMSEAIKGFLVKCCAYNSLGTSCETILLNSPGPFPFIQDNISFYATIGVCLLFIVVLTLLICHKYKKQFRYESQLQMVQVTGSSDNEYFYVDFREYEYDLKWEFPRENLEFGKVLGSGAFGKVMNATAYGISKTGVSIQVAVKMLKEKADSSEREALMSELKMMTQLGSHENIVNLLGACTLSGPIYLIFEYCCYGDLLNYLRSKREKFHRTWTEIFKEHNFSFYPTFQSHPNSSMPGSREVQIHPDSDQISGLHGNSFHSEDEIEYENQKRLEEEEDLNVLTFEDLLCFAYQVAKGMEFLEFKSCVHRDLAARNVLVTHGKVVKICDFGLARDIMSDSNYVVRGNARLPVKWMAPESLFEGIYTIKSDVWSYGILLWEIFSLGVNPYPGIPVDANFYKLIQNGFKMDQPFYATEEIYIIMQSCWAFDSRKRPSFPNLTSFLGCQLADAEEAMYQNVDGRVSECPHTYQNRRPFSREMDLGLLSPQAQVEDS
Description: Ba/F3-Flt3 (minus IL3) cellular proliferation assay, Alamar Blue. The class given is cell-based. On the procedure:
Ba/F3-Flt3 (Minus IL3 or Plus IL3) (Cellular Proliferation Assay)
In a 384 well plate, 100 nl of compound dilution in DMSO was sprayed before adding 50 μl cell culture medium (phenol red free RPMI-1640, 10% FBS, 2 mM L-Glutamine and 50 μg/ml Gentamycin) containing 20000 cells per well of Ba/F3-Flt3-transfected cells. Cells were put in an incubator at 37° C. and 5% CO2. After 24 hours, 10 μl of Alamar Blue solution (0.5 mM K3Fe(CN)6, 0.5 mM K4Fe(CN)6, 0.15 mM Resazurin and 100 mM Phosphate Buffer) was added to the wells, incubated for 4 hours at 37° C. and 5% CO2 before RFU's (Relative Fluorescence Units) (ex. 540 nm., em. 590 nm.) were measured in a fluororescence plate reader. […]
A general note: The colour change of resazurin is a common sign of viable cells or microbes.
With `COc1cc(OC)cc(N(CC#Cc2ncccc2OC)c2ccc3ncc(-c4cnn(C)c4)nc3n2)c1` [Compound 26], the “BAF3-FLT3 (MIN IL3) pIC50” value is on record as under 5.
The value for `COc1cc(OC)c(F)c(N(CCO)c2ccc3ncc(-c4cnn(C)c4)nc3n2)c1F` [Compound 20] was 5.23.
In the case of `CNCCn1/c(=N/c2cc(OC)cc(OC)c2F)ccc2ncc(-c3cnn(C)c3)nc21` [Compound 38], the “BAF3-FLT3 (MIN IL3) pIC50” value is on record as under 5.
For `COc1cc(OC)c(F)c(N(Cc2cn(S(=O)(=O)N(C)C)cn2)c2ccc3ncc(-c4cnn(C)c4)nc3n2)c1` [Compound 36], the “BAF3-FLT3 (MIN IL3) pIC50” value is under 5.
The value for `COc1cc(OC)c(F)c(N(CCCO)c2ccc3ncc(-c4cnn(C)c4)nc3n2)c1F` (single isomer, unassigned) [Compound 16] was 5.18; that for `COCC(O)CN(c1cc(OC)cc(OC)c1)c1ccc2ncc(-c3cnn(C)c3)nc2n1` (centres unmarked) [Compound 7] was under 5.
Take `COc1cc(/N=c2\ccc3ncc(-c4cnn(C)c4)nc3n2CCNC(C)C)c(F)c(OC)c1` [Compound 37]: the “BAF3-FLT3 (MIN IL3) pIC50” value was under 5.
For the compound `COc1cc(OC)c(F)c(N(Cc2cnccn2)c2ccc3ncc(-c4cnn(C)c4)nc3n2)c1F` [Compound 10], the “BAF3-FLT3 (MIN IL3) pIC50” value was 5.12.
Turning to `CNCCN(c1ccc2ncc(-c3cnn(C)c3)nc2n1)c1cc(OC)cc(OC)c1F` [Compound 39], the “BAF3-FLT3 (MIN IL3) pIC50” value was under 5.
As for `Cn1cc(-c2cnc3ccc(N(Cc4ncc[nH]4)c4cc(F)cc(F)c4)nc3n2)cn1` [Compound 27], the “BAF3-FLT3 (MIN IL3) pIC50” value is given as under 5.
The value for `COc1cc(OC)c(F)c(N(Cc2ncccn2)c2ccc3ncc(-c4cnn(C)c4)nc3n2)c1` [Compound 9] was under 5.

Source of the values: patent publication US9309242B2, “Substituted pyrido[2,3-b]pyrazines as FGFR kinase inhibitors” (priority 2011, dated 2016).
